Source: ChEMBL document CHEMBL1201862, “PubChem BioAssay data set” (2004)
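Tested at 5 concentrations; 48 h exposure; 96-well plates; endpoints linearly interpolated, else capped at highest concentration. At the GI50, growth is halved.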 Activity calls are given as the source filed them. Cut-off read from the data, not from the text of the source: active = GI50 up to about 1.1 µM and inactive = higher.

Tests used:
Test in all cases: NCI tumour cell line growth inhibition, 48 h
CCRF-CEM = tested on: CCRF-CEM
EKVX = tested on: EKVX
HCT-15 = tested on: HCT-15
HL-60 = tested on: HL-60
HOP-62 = tested on: HOP-62
IGROV-1 = tested on: IGROV-1
KM12 = tested on: KM12
LOX IMVI = tested on: LOX IMVI
Malme-3M = tested on: Malme-3M
NCI-H460 = tested on: NCI-H460
OVCAR-8 = tested on: OVCAR-8
RXF 393 = tested on: RXF 393
SF-268 = tested on: SF-268
SK-MEL-2 = tested on: SK-MEL-2
SK-OV-3 = tested on: SK-OV-3
SNB-19 = tested on: SNB-19
UACC-257 = tested on: UACC-257
UO-31 = tested on: UO-31
TK-10 = tested on: TK-10
U-251 = tested on: U-251

Row | SMILES | GI50 (CCRF-CEM) | GI50 (EKVX) | GI50 (HCT-15) [µM] | GI50 (HL-60) | GI50 (HOP-62) | GI50 (IGROV-1) | GI50 (KM12) | GI50 (LOX IMVI) | GI50 (Malme-3M) | GI50 (NCI-H460) | GI50 (OVCAR-8) | GI50 (RXF 393) | GI50 (SF-268) | GI50 (SK-MEL-2) | GI50 (SK-OV-3) | GI50 (SNB-19) | GI50 (UACC-257) | GI50 (UO-31) | GI50 (TK-10) | GI50 (U-251)
1 | C#CCn1c(=O)c(C#N)c(O)c2cc3ccccc3nc21 | > 100 µM (inactive) | > 100 µM (inactive) | > 100 | > 100 µM (inactive) | > 100 µM (inactive) | > 100 µM (inactive) | > 100 µM (inactive) | > 100 µM (inactive) | > 100 µM (inactive) | > 100 µM (inactive) | > 100 µM (inactive) | > 100 µM (inactive) | > 31.6 µM (inactive) | > 100 µM (inactive) | > 100 µM (inactive) | > 100 µM (inactive) | > 100 µM (inactive) | > 100 µM (inactive) |  | 
2 | CSC(=N)NNC(=O)CCC(=O)Nc1ccccc1C(F)(F)F | > 100 µM (inactive) | > 100 µM (inactive) | > 100 |  | > 100 µM (inactive) | > 100 µM (inactive) | > 100 µM (inactive) | > 100 µM (inactive) | > 100 µM (inactive) | > 100 µM (inactive) | > 100 µM (inactive) | > 100 µM (inactive) | > 100 µM (inactive) | > 100 µM (inactive) | > 100 µM (inactive) | > 100 µM (inactive) | > 100 µM (inactive) | > 100 µM (inactive) | > 100 µM (inactive) | > 100 µM (inactive)
3 | OCCOCn1nc(-c2ccccc2)nc1-c1cnccn1 | > 100 µM (inactive) | > 100 µM (inactive) | > 100 | > 100 µM (inactive) | > 100 µM (inactive) | > 100 µM (inactive) | > 100 µM (inactive) | > 100 µM (inactive) |  | > 100 µM (inactive) | > 100 µM (inactive) | > 100 µM (inactive) | > 100 µM (inactive) |  | > 100 µM (inactive) | > 100 µM (inactive) | > 100 µM (inactive) | > 100 µM (inactive) | > 100 µM (inactive) | > 100 µM (inactive)
4 | O=C1NC(c2cccc3ccccc23)Nc2ccc(O)cc21 (centres undefined) | 20.2 µM (inactive) | 42.3 µM (inactive) | 11 | 6.14 µM (inactive) | 31.8 µM (inactive) | 35.1 µM (inactive) | 23.4 µM (inactive) | 16.2 µM (inactive) | 24.4 µM (inactive) | 28 µM (inactive) | 36.9 µM (inactive) | 31 µM (inactive) | 35.6 µM (inactive) | 20.4 µM (inactive) | 41.1 µM (inactive) | 58.1 µM (inactive) | 23.4 µM (inactive) | 30.2 µM (inactive) |  | 38.8 µM (inactive)
5 | O=Cc1ccc(CCl)cc1 | 12.4 µM (inactive) | 45.6 µM (inactive) | 17.9 | 4.56 µM (inactive) |  | 20.8 µM (inactive) | 23.5 µM (inactive) | 11 µM (inactive) |  | 18.6 µM (inactive) | 18.8 µM (inactive) | 16.9 µM (inactive) | 24 µM (inactive) | 17.2 µM (inactive) | 22.1 µM (inactive) | 14.7 µM (inactive) | 17.7 µM (inactive) | 16.7 µM (inactive) | 22.1 µM (inactive) | 18.2 µM (inactive)
6 | Nc1ccc(C2(c3ccc(N)cc3)C3CC4CC(C3)CC2C4)cc1 | 3.76 µM (inactive) | 16.4 µM (inactive) | 14.6 | 19.2 µM (inactive) | 13.6 µM (inactive) | 9.59 µM (inactive) | 0.0975 µM (active) | 16.2 µM (inactive) |  |  | 7.73 µM (inactive) | 2.74 µM (inactive) | 1.57 µM (inactive) | 18.5 µM (inactive) | 13.4 µM (inactive) | 14.6 µM (inactive) | 19.2 µM (inactive) | 18.2 µM (inactive) | 18 µM (inactive) | 18.3 µM (inactive)
7 | O=C(NC1C(O)C(O)C(CO)OC1n1cc(F)c(=O)[nH]c1=O)OCc1ccccc1 (centres undefined) | 22.2 µM (inactive) |  | > 100 | > 100 µM (inactive) | > 100 µM (inactive) |  | > 100 µM (inactive) | > 100 µM (inactive) | > 100 µM (inactive) | > 100 µM (inactive) |  | > 100 µM (inactive) | > 100 µM (inactive) | > 100 µM (inactive) | > 100 µM (inactive) | > 100 µM (inactive) | > 100 µM (inactive) |  | > 100 µM (inactive) | > 100 µM (inactive)
8 | CCCCC(NC(=O)CC)C(=O)O (centres undefined) | > 100 µM (inactive) | > 100 µM (inactive) | > 100 | > 100 µM (inactive) | > 100 µM (inactive) | > 100 µM (inactive) | > 100 µM (inactive) | > 100 µM (inactive) | > 100 µM (inactive) | > 100 µM (inactive) | > 100 µM (inactive) |  | > 100 µM (inactive) | > 100 µM (inactive) | > 100 µM (inactive) | > 100 µM (inactive) | > 100 µM (inactive) | > 100 µM (inactive) |  | > 100 µM (inactive)
